For ten compounds, EC50 and Emax results are on record in ChEMBL document CHEMBL1135189, “Discovery of non-zwitterionic GABA(A) receptor full agonists and a superagonist” (Bioorg Med Chem Lett, 2002).

What all share (format): functional
Assay [1] has as its target GABA-A receptor; anion channel. Put plainly: Activation of chloride ion uptake into mouse brain synaptoneurosomes, no net uptake at […].
In assay [2] the target is T1, GABA-A receptor; anion channel (Mus musculus) (UniProt Q8BHJ7+P26048+Q8QZW7+P50571+Q9R0Y8+P22723+A2AMW3+P62812+Q9JLF1+P26049+P22933+Q9D6F4+P63080+P27681+P16305). As to the kind of experiment: Agonistic activity against GABA-A receptor chloride uptake, full agonist.
Assay [3] concerns the target GABA-A receptor; anion channel. Put plainly: Activation of chloride ion uptake into mouse brain synaptoneurosomes.
Assay [4] deals with T1, GABA-A receptor; anion channel (Mus musculus). As to the kind of experiment: Agonistic activity against GABA-A receptor chloride uptake, partial agonist.
Assay [5] shares this target. As to the kind of experiment: Agonistic activity against GABA-A receptor chloride uptake, super-agonist.

Turning to `NCCCC(=O)NCCN`, the EC50 (usually the concentration at which the effect is half-maximal) in assay [1] is above 4 mM. `NCCCCNC(=O)CCCN` came in with an Emax in assay [2] of 497. Besides, in assay [3], the 50% effective concentration (EC50) was determined as 1140 µM. `Oc1noc2c1CCNC2` [GABOXADOL] displayed a 50% effective concentration (EC50) in assay [3] of 335 µM.

In assay [1], `NCCCC(=O)NCCNCC(=O)O` came in with a half-maximal effective concentration (EC50) above 4 mM. In assay [3], `NCCCC(=O)NCCNC(=O)CCCN` gave a concentration giving a half-maximal response (EC50) of 733 µM. Besides, the Emax in assay [4] was found to be 264. For `CCCCNC(=O)CCCN` the same measures were 340 µM and 362.

Consider `CC(=O)NCCCCNC(=O)CCCN`, for which the Emax in assay [2] worked out at 549. Further, in assay [3], a half-maximal response (EC50) required 414 µM. Compound `NCCCC(N)=O` came in with an EC50 in assay [3] of 317 µM. This compound registered an Emax in assay [4] of 307. `NCCCC(=O)NCCCCNC(=O)CCCN` displayed an EC50 in assay [3] of 475 µM. The Emax in assay [5] amounted to 578. As for `NCCCC(=O)NCCCCCCNC(=O)CCCN`, in assay [2], the Emax came out at 433. Further, the half-maximal effective concentration (EC50) in assay [3] worked out at 643 µM.
